Data set [1] relates to murine mCherry-core RAG1 / mCherry-RAG2 V(D)J recombination in Expi293F cells. Kind of data set: Extrachromosomal cell-based V(D)J recombination assay (GFP reporter, flow cytometry). The note with it: for Effect on percentage of GFP-positive cells / RAG recombination: across concentrations tested, 48 h post-transfection. An excerpt:
To further evaluate the effect of HIV-1 integrase inhibitors on RAG activity in a cellular context, we optimized a novel extrachromosomal cell-based V(D)J recombination assay, enabling assessment of multiple compounds in a dose–response manner by flow cytometry ([33]). The schematic of FL murine RAG1 and RAG2 proteins, including the active site residues (DDE motif) in RAG1 and catalytically essential core regions of each protein, are shown in Fig. 5A. The cell-based assay used vectors that encode for the core RAG1 protein (instead of the FL version) and FL murine RAG2 expressed as C-terminal fusions to mCherry, termed mCherry-core RAG1 and mCherry-RAG2. The core regions of each RAG protein are sufficient to catalyze V(D)J recombination, whereas the non-core regions function to regulate the recombination reaction ([13]). […] The consensus RSS used in this assay contains a conserved heptamer and nonamer separated by 12 or 23 non-conserved bp (12RSS and 23RSS) (Fig. 5B). A general schematic of the design for the plasmid substrate with the 12RSS and 23RSS orientations before and after V(D)J recombination is presented in Fig. 5C. More specifically, the plasmid substrate pMAXgfp-INV was designed with a 12RSS and a 23RSS flanking each side of the Pontellina plumata green fluorescent protein gene (termed maxGFP), where the gene is in an inverted orientation relative to the CMV promoter (Fig. 5D). The RSSs are positioned in a co-linear orientation, such that successful V(D)J recombination activity will result in inversion of the maxGFP gene to place it in a transcriptionally active orientation with resulting expression of GFP. Detection of GFP-expressing cells using microscopy and flow cytometry was used as a direct readout of V(D)J recombination activity.
For the recombination assay, the pMAXgfp-INV plasmid substrate and RAG1/RAG2 expression vectors (mCherry-core RAG1 and mCherry-RAG2) were transiently transfected into Expi293 cells in the absence or presence of integrase inhibitors and were assessed via microscopy and flow cytometry. The fluorescence signal from the mCherry-tag is used to assess transfection efficiency of RAG1/RAG2 vectors (Fig. 6A). We observed that transfection of the pMAXgfp-INV substrate into Expi293 cells with RAG1/RAG2 expression vectors yielded robust GFP expression 48 h post-transfection in the cells treated with vehicle control (0.1% dimethyl sulfoxide [DMSO]) (Fig. 6A). […] NU7026 inhibits double-strand break repair, which is a necessary step after DNA cleavage by RAG enzymes, and thus serves as an indirect inhibitor of RAG activity ([35]).
To test the effect of HIV-1 integrase inhibitors on V(D)J recombination activity, we optimized an extrachromosomal cell-based V(D)J recombination assay ([33]). Briefly, Expi293 cells were plated at 1 × 10^6 cells/mL in six-well plates in Gibco Expi293 expression media the day before transfection. The next day, the Expi293 cells were co-transfected with three separate vectors, pMAXgfp-INV plasmid substrate, mCherry-core RAG1, and mCherry-RAG2 expression vectors with a 4:1 transfection reagent:DNA ratio using ExpiFectamine 293 transfection reagent (Gibco). Vehicle or candidate inhibitors were added to cell samples 2 h after transfection, with six different concentrations of each inhibitor added to separate wells. Fivefold dilutions for each inhibitor starting from 10 µM were tested.
Experiments were performed with six separate inhibitors in at least three independent experiments. Two negative control conditions for recombination activity were performed in parallel and include (i) transfections in the presence of NU7026 at 30 and 50 µM (Abcam) and (ii) using a modified pMAXgfp-INV substrate containing two 12RSSs (instead of one 12RSS and one 23RSS) that is inefficiently recombined by the RAG proteins. Vehicle control (0.1% DMSO) served as the positive control for GFP expression. The fluorescence signal from the mCherry tag was used to assess transfection efficiency. […]
(In general: Flow cytometry measures light scatter and fluorescence of single cells or particles in a stream.)

Data set [2] in a line: 5-day cytotoxicity assay with Cell Titer Glo readout, Expi293F. The format is cell-based. To be noted: human. An excerpt:
(§1) Supplemental Table S2. CC50 values for INSTIs in 5- day cytotoxicity as says with Cell Titer
(§2) Expi293F GALPC3 GALHEP HUH7 MRC5 MT4 PBMC PBMC
(§3) Kidney Prostate Hepatoma Hepatoma Lung T-cell line Primary Primary
(§4) (embryonic) cancer cell cell line cell line fibroblast cells

The nature of data set [3]: 5-day cytotoxicity assay with Cell Titer Glo readout, GALPC3. The data set is classed as cell-based. To be noted: human.
From the text: as §1, §2, §3, §4
In general terms: Cellular ATP, detected with luciferase, serves as a proxy for viable cell number.

Data set [4] in a line: 5-day cytotoxicity assay with Cell Titer Glo readout, GALHEPG2. The data set is classed as cell-based. To be noted: human.
From the text: as §1, §2, §3, §4

The nature of data set [5]: 5-day cytotoxicity assay with Cell Titer Glo readout, HUH7. The format is cell-based. The note with it: human.
From the text: as §1, §2, §3, §4

The nature of data set [6]: 5-day cytotoxicity assay with Cell Titer Glo readout, MT4. The format is cell-based. To be noted: human.
From the text: as §1, §2, §3, §4

The nature of data set [7]: 5-day cytotoxicity assay with Cell Titer Glo readout, PBMC. The data set is classed as cell-based.
From the text: as §1, §2, §3, §4

In data set [8] the test system is PBMC primary cells. Described as above. The format is cell-based.
From the text: as §1, §2, §3, §4

In data set [9] the test system is Expi293F cells. Nature of the data set: Cell viability (CellTiterGlo) in the cellular RAG assay. The data set is classed as cell-based, human. The note with it: 48 hours after transfection, up to 10 µM (p8 up to 50 µM). The procedure: After 48-h incubation at 37°C in a humidified 8% CO2 incubator, 100 µL of cell suspension was transferred to 96-well black assay plates (Corning). Each well of the assay plates then received 100 µL CellTiterGlo reagent and the resulting luminescence signal was read using the PHERAstar FSX plate reader (BMG Labtech, Germany).
Supplemental Figure S4. Cytotoxicity analysis of INSTIs in the cellular RAG assay using […]
Concentration (μM) Concentration (μM) Concentration (μM)
Expi293F cells were co-t ransfected with pMAXgfp- INV plasmid substrate, mCherry- core RAG1 , mCherry RAG2, with INSTIs added 2 hours after transfection. Six different concentrations of each […]
added to separate wells. % live cells normalized to 0.1% DMSO data are presented for INSTIs tested in cell viability (Cell- Titer Glo) assay 48 hours after transfection. BIC (n=5), CAB (n=3), concentrations tested. An ordinary one-way ANOVA with Dunnett's multiple comparisons test unmarked datapoints = not significant. […]
was used to compare % GFP levels to the DMSO control, *P ≤ 0.05, **P ≤ 0.01, ***P ≤ 0.001, (also on this page, place not known: live normalized 0.001 % live cells normalized DMSO 0.001 10 % live cells normalized DMSO 0.001 10 % live cells normalized to DMSO 0.001 10 % live cells normalized to DMSO E xpi293F cells co-transfected pMAXgfp-INV mCherry-core RAG1, 5-fold 10 to % live cells normalized to DMSO (n=3) one -way to % to DMSO)

Data set [10] addresses recombinant HIV-1 integrase. To be noted: read-out: Target IC50 for integrase; cited from earlier work.
The conditions of data set [11]: cited from earlier work; for Human clinical free Cmax: Cmax corrected for protein binding.
Data set [12] deals with RAG1/RAG2. The note with it: cited from earlier work; for Effect on RAG binding or cleavage at the RSS: EVG 50–200 μM, RAL up to 200 µM.

Entries after “also recorded” stand apart in the source; their conditions may differ. Where two headings read alike, the source gives them in different places.

For `O=C(NCc1c(F)cc(F)cc1F)c1cn2c(c(O)c1=O)C(=O)N1[C@H]3CC[C@H](C3)O[C@@H]1C2` [BIC, bictegravir], the “Effect on percentage of GFP-positive cells / RAG recombination” value in [1] is “did not observe a reduction in percentage of GFP-positive cells; also recorded: do not show inhibitory activity”. Besides, the CC50 at 5 day was 46 µM in data set [2]; over 44.4 µM in data set [3]; 17.4 µM in data set [4]; 38 µM in data set [5]; 2.59 µM in data set [6]; 28.5 µM in data set [7] (CC50). The molecule also yielded a CC50 in [8] (5 day) of 24.2 µM. Also, the “Cellular toxicity, % live cells normalized to 0.1% DMSO” value in [9] is listed as “minimal effects on cellular toxicity”. Also, the concentration for half-maximal inhibition (IC50) in [10] is 0.0075 ± 0.0003 µM. In data set [11], the “Human clinical free Cmax” value was 34 nM.
With `C[C@H]1CO[C@@H]2Cn3cc(C(=O)NCc4ccc(F)cc4F)c(=O)c(O)c3C(=O)N12` [CAB, cabotegravir], the “Effect on percentage of GFP-positive cells / RAG recombination” value in data set [1] is “did not observe a reduction in percentage of GFP-positive cells; also recorded: do not show inhibitory activity”. Moreover, the CC50 at 5 day in [2] was over 100 µM; in data set [3], over 44.4 µM; in data set [4] it was 37.9 µM; in [5], 21.5 µM; in [6], 5.25 µM; in data set [7] (CC50), 30 µM. This molecule also came in with a CC50 in data set [8] (5 day) of 29.5 µM. Further, the “Cellular toxicity, % live cells normalized to 0.1% DMSO” value in [9] is recorded as “minimal effects on cellular toxicity”. For the same molecule, the IC50 in data set [10] is 0.003 µM. Besides, the “Human clinical free Cmax” value in [11] is 25 nM.
As to `C[C@@H]1CCO[C@H]2Cn3cc(C(=O)NCc4ccc(F)cc4F)c(=O)c(O)c3C(=O)N12` [DTG, dolutegravir], in data set [1], the “Effect on percentage of GFP-positive cells / RAG recombination” value was “did not observe a reduction in percentage of GFP-positive cells; also recorded: do not show inhibitory activity”. Further, the CC50 at 5 day in data set [2] was 53.6 µM; in data set [3] it was over 44.4 µM; in [4], over 44.4 µM; in [5] it was 28.7 µM; in data set [6] it was 7.53 µM; in data set [7] (CC50) it was 28.4 µM. Moreover, the CC50 in data set [8] (5 day) came to 17.9 µM. Further, the “Cellular toxicity, % live cells normalized to 0.1% DMSO” value in data set [9] is listed as “minimal effects on cellular toxicity”. Moreover, in data set [11], the “Human clinical free Cmax” value was 58 nM. Further, the Cmax in data set [11] (at clinical dosage of Table 1 (EVG with 150 mg cobicistat)) was 8300 nM. For the same molecule, the “Decrease of DNA binding and cleavage by RAG1” value in data set [12] (DTG 200–500 μM) is given as 50%–75%.
As to `COc1cc2c(cc1Cc1cccc(Cl)c1F)c(=O)c(C(=O)O)cn2[C@H](CO)C(C)C` [EVG, elvitegravir], the “Effect on percentage of GFP-positive cells / RAG recombination” value in data set [1] is “do not show inhibitory activity”. Moreover, the 50% cytotoxic concentration (CC50) at 5 day in data set [2] turned out to be 32.5 µM; in data set [3], 20.8 µM; in [4], 9.02 µM; in data set [5], 20.4 µM; in [6] it was 3.75 µM; in [7] (CC50), 14.6 µM. The same molecule returned a cytotoxic concentration (CC50) in [8] (5 day) of 14.1 µM. Besides, the “Cellular toxicity, % live cells normalized to 0.1% DMSO” value in data set [9] was “minimal effects on cellular toxicity”. Further, in data set [11], the “Human clinical free Cmax” value was 22 nM. The “Effect on RAG binding or cleavage at the RSS” value in data set [12] is recorded as “inhibition of RAG cleavage at the RSS”.
Regarding `Cc1nnc(C(=O)NC(C)(C)c2nc(C(=O)NCc3ccc(F)cc3)c(O)c(=O)n2C)o1` [RAL, raltegravir], in [1], the “Effect on percentage of GFP-positive cells / RAG recombination” value is given as “did not observe a reduction in percentage of GFP-positive cells; also recorded: do not show inhibitory activity”. Also, the 50% cytotoxic concentration (CC50) at 5 day in [2] (Expi293F, 5-day, Cell Titer Glo, read-out: CC50) was over 100 µM; in [3] (GALPC3, 5-day, Cell Titer Glo, read-out: CC50) it was over 44.4 µM; in data set [4] (GALHEPG2, 5-day, Cell Titer Glo, read-out: CC50) it was over 44.4 µM; in [5] (HUH7, 5-day, Cell Titer Glo, read-out: CC50), over 44.4 µM; in data set [6] (MT4, 5-day, Cell Titer Glo, read-out: CC50), over 50 µM; in [7] (PBMC Lot1, 5-day, Cell Titer Glo, read-out: CC50), over 44.3 µM. The half-maximal cytotoxic concentration (CC50) in data set [8] (PBMC Lot2, 5-day, Cell Titer Glo, read-out: CC50) was over 44.3 µM. The “Cellular toxicity, % live cells normalized to 0.1% DMSO” value in [9] is recorded as “minimal effects on cellular toxicity”. For the same molecule, in [12], the “Effect on RAG binding or cleavage at the RSS” value is “no effect on binding or cleavage”.
On to `O=C(/C=C(\O)c1nnn[nH]1)c1c[nH]c2ccc(Cl)cc12` [p8, 5-CITEP], for which, in data set [1] (Mus musculus, Expi293F, compound added 2 h after transfection, read 48 h post-transfection, serum-free media, read-out: IC50 in cellular V(D)J recombination assay (% GFP-positive cells)), the IC50 was over 50 µM. In addition, the cytotoxic concentration (CC50) at 5 day is over 100 µM in [2]; over 44.4 µM in data set [3]; over 44.4 µM in data set [4]; over 44.4 µM in data set [5]; over 50 µM in data set [6]; over 44.3 µM in data set [7] (CC50). Besides, the 50% cytotoxic concentration (CC50) in data set [8] (5 day) was over 44.3 µM. Moreover, the “Cellular toxicity, % live cells normalized to 0.1% DMSO” value in data set [9] is given as “minimal effects on cellular toxicity”.

A word on the CC50: it is the concentration that lowers cell viability or growth by half. For orientation: IC50 means the midpoint of a concentration-inhibition curve. The term Cmax denotes the maximum level reached in the sampled fluid or tissue.

Source of the values: article PMC11705955, “Lack of activity of HIV-1 integrase strand-transfer inhibitors on recombinase activating gene (RAG) activity at clinically relevant concentrations” (Microbiology Spectrum, 2024).
